Experimental data from patent US10231956B2, “3-(1H-pyrrolo[3,2-C]pyridin-2-YL)-1 H-pyrazolo[4,3-B]pyridines and therapeutic uses thereof” (Samumed, LLC, priority 2015, dated 2019).

Legend:
Assay type in all cases: cell-based
SW480 colon cancer cells = assay: Cell viability assay (CellTiter-Blue) in SW480 colon cancer cells; details: Homo sapiens; for EC50: 96 h, four days, CellTiter-Blue; for inhibition at 10 µM: given for EC50 >10 μM, read-out: percent inhibition at 10 μM
In short: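 Four-day viability readout in SW480 cells: compound at 0.0045–10 μM (1:3 series), DMSO controls in eight replicates, CellTiter-Blue fluorescence after ~3 h. Values are regression-derived EC50s, or percent inhibition at 10 μM when EC50 exceeds 10 μM.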

[1] = system: primary human mesenchymal stem cells (hMSCs); assay: Induction of chondrogenesis in primary human mesenchymal stem cells (nodule count); details: 144 h, 6 days; for Emax: TGF-β3 10 ng/mL as positive control, read-out: Max. Activity as % TGF-β3 activity; for EC50: concentration required to induce 50% levels of chondrogenesis vs TGF-β3, read-out: Conc (nM) of 50% TGF-β3 activity
Procedure: Representative compounds were screened using primary human mesenchymal stem cells (hMSCs) to determine their ability to induce chondrogenesis (process by which cartilage is developed).
Human Mesenchymal Stem Cell Culture: Primary human mesenchymal stem cells (hMSCs) were purchased from Lonza (Walkersville, Md.) and expanded in Mesenchymal Stem Cell Growth Media (Lonza). Cells between passage 3 and 6 were used for the experiments.
Compound Screening: Each compound was dissolved in DMSO as a 10 mM stock and used to prepare compound source plates. Serial dilution (1:3, 6-point dose-response curves from 2700 nM to 10 nM) and compound transfer was performed using the ECHO 550 (Labcyte, Sunnyvale, Calif.) into 96-well clear bottom assay plates (Greiner Bio-One) with appropriate DMSO backfill for a final DMSO concentration of 0.03%. hMSCs were plated at 20,000 cells/well in 250 μL/well Incomplete Chondrogenic Induction Medium (Lonza; DMEM, dexamethasone, ascorbate, insulin-transferrin-selenium [ITS supplement], gentamycin-amphotericin [GA-1000], sodium pyruvate, proline and L-glutamine). TGF-β3 (10 ng/mL) was used as a positive control for differentiation while negative control wells were treated with 75 nL DMSO for normalization and calculating EC50 values. Cells were incubated at 37° C. and 5% CO2 for 6 days. To image chondrogenic nodules, the cells were fixed using 4% formaldehyde (Electron Microscopy Sciences), and stained with 2 μg/mL Rhodamine B (Sigma-Aldrich) and 20 μM Nile Red (Sigma-Aldrich) [Johnson K., et. al, A Stem Cell-Based Approach to Cartilage Repair, Science, (2012), 336(6082), 717-721]. The nodules imaged (4 images per well at 4× magnification) by excitation at 531 nm and emission at 625 nm and quantified using the CellInsight CX5 (Thermo Scientific). Number of nodules in each well was normalized to the average of 3 DMSO treated wells on the same plate using Excel (Microsoft Inc.). The normalized averages (fold change over DMSO) of 3 replicate wells for each compound concentration were calculated. Due to solubility limitations of some of the compounds, curve fitting was incomplete leading to inaccurate EC50 determinations.
Using TGF-β3 as a positive control, the concentration of representative compounds required to induce 50% levels of chondrogenesis is reported. In addition, the maximum activity of each compound and the respective dose that each compound reached maximum chondrogenesis activity is reported.

IL-6 = IL-6 inhibition in LPS-stimulated THP-1 cells (HTRF); details: Homo sapiens; for EC50: LPS 500 ng/mL, 22 hours, IL6 HTRF; for inhibition at 10 µM: given for EC50 >10 μM, LPS, IL6, 10 μM, read-out: percent inhibition at 10 μM

SMILES	EC50 (SW480 colon cancer cells)	EC50 [1]	EC50 (IL-6)	Emax [1]	inhibition at 10 µM (SW480 colon cancer cells)	inhibition at 10 µM (IL-6)
CS(=O)(=O)NCc1cc(F)cc(-c2nccc3[nH]c(-c4n[nH]c5ccc(-c6cncc(NC(=O)C7CCCCC7)c6)nc45)cc23)c1 [Compound 499, N-(5-(3-(4-(3-Fluoro-5-(methylsulfonamidomethyl)phenyl)-1H-pyrrolo[3,2-c]pyridin-2-yl)-1H-pyrazolo[4,3-b]pyridin-5-yl)pyridin-3-yl)cyclohexanecarboxamide]	1420 nM	10 nM	542 nM	50%		
CS(=O)(=O)NCc1cc(F)cc(-c2nccc3[nH]c(-c4n[nH]c5ccc(-c6cncc(CN7CCC(F)(F)C7)c6)nc45)cc23)c1 [Compound 502, N-(3-(2-(5-(5-((3,3-Difluoropyrrolidin-1-yl)methyl)pyridin-3-yl)-1H-pyrazolo[4,3-b]pyridin-3-yl)-1H-pyrrolo[3,2-c]pyridin-4-yl)-5-fluorobenzyl) methanesulfonamide]	810 nM	10 nM	349 nM	148%		
CS(=O)(=O)NCc1cc(F)cc(-c2nccc3[nH]c(-c4n[nH]c5ccc(-c6cncnc6)nc45)cc23)c1 [Compound 503, N-(3-Fluoro-5-(2-(5-(pyrimidin-5-yl)-1H-pyrazolo[4,3-b]pyridin-3-yl)-1H-pyrrolo [3,2-c]pyridin-4-yl)benzyl)methanesulfonamide]	> 10000 nM	2700 nM	> 10000 nM	51%	15.3%	7.6%
CS(=O)(=O)NCc1cc(F)cc(-c2nccc3[nH]c(-c4n[nH]c5ccc(-c6ccccn6)nc45)cc23)c1 [Compound 504, N-(3-Fluoro-5-(2-(5-(pyridin-2-yl)-1H-pyrazolo[4,3-b]pyridin-3-yl)-1H-pyrrolo[3,2-c]pyridin-4-yl)benzyl)methanesulfonamide]	> 10000 nM		> 10000 nM	24%	44.7%	0%
Fc1ccc(-c2nccc3[nH]c(-c4n[nH]c5ccc(-c6cncc(OC7CCNCC7)c6)nc45)cc23)cc1 [Compound 528, 3-(4-(4-Fluorophenyl)-1H-pyrrolo[3,2-c]pyridin-2-yl)-5-(5-(piperidin-4-yloxy)pyridin-3-yl)-1H-pyrazolo[4,3-b]pyridine]	5220 nM	10 nM	724 nM	54%		
Fc1ccccc1-c1nccc2[nH]c(-c3n[nH]c4ccc(-c5cn[nH]c5)nc34)cc12 [Compound 539, 3-(4-(2-Fluorophenyl)-1H-pyrrolo[3,2-c]pyridin-2-yl)-5-(1H-pyrazol-4-yl)-1H-pyrazolo[4,3-b]pyridine]	1270 nM	100 nM	103 nM	174%		
Cc1ncc(-c2ccc3[nH]nc(-c4cc5c(-c6ccncc6)nccc5[nH]4)c3n2)n1C [Compound 573, 5-(1,2-Dimethyl-1H-imidazol-5-yl)-3-(4-(pyridin-4-yl)-1H-pyrrolo[3,2-c]pyridin-2-yl)-1H-pyrazolo[4,3-b]pyridine]	> 10000 nM	30 nM	> 10000 nM	104%	25.6%	0%

Continued, in another order:

EC50 (SW480 colon cancer cells)	EC50 [1]	EC50 (IL-6)	SMILES	Emax [1]	inhibition at 10 µM (SW480 colon cancer cells)	inhibition at 10 µM (IL-6)
300 nM	10 nM	1790 nM	c1cc2[nH]c(-c3n[nH]c4ccc(-c5cncc(OC6CCCCC6)c5)nc34)cc2c(N2CCCCC2)n1 [Compound 607, 5-(5-(Cyclohexyloxy)pyridin-3-yl)-3-(4-(piperidin-1-yl)-1H-pyrrolo[3,2-c]pyridin-2-yl)-1H-pyrazolo[4,3-b]pyridine]	163%		
> 10000 nM		2950 nM	O=C(CC1CCNCC1)Nc1cncc(-c2ccc3[nH]nc(-c4cc5c(N6CCCCC6)nccc5[nH]4)c3n2)c1 [Compound 609, N-(5-(3-(4-(Piperidin-1-yl)-1H-pyrrolo[3,2-c]pyridin-2-yl)-1H-pyrazolo[4,3-b]pyridin-5-yl)pyridin-3-yl)-2-(piperidin-4-yl)acetamide]	22%	9.7%	
2070 nM		1070 nM	c1cc2[nH]c(-c3n[nH]c4ccc(-c5cncc(OCCN6CCCC6)c5)nc34)cc2cn1 [Compound 658, 5-(5-(2-(Pyrrolidin-1-yl)ethoxy)pyridin-3-yl)-3-(1H-pyrrolo[3,2-c]pyridin-2-yl)-1H-pyrazolo[4,3-b]pyridine]	23%		
